Measured values as given in article PMC8849072, “Sudapyridine (WX-081), a Novel Compound against Mycobacterium tuberculosis” (Microbiology Spectrum, 2022).
Values after ≈ are worked out from the molar mass of the structure shown.

Assays:
[1] = tested on: M. tuberculosis susceptible strain 14241; assay: MIC by microplate alamarBlue assay (MABA); format: cell-based, Mycobacterium tuberculosis; settings: for MIC: Mycobacterium tuberculosis
[2] = tested on: M. tuberculosis susceptible strain 14242; assay: MIC by microplate alamarBlue assay (MABA); format: cell-based, Mycobacterium tuberculosis; settings: for MIC: Mycobacterium tuberculosis
[3] = tested on: M. tuberculosis susceptible strain 14280; assay: MIC by microplate alamarBlue assay (MABA); format: cell-based, Mycobacterium tuberculosis; settings: for MIC: Mycobacterium tuberculosis
[4] = tested on: M. tuberculosis susceptible strain 14286; assay: MIC by microplate alamarBlue assay (MABA); format: cell-based, Mycobacterium tuberculosis; settings: for MIC: Mycobacterium tuberculosis
[5] = tested on: M. tuberculosis susceptible strain 14480; assay: MIC by microplate alamarBlue assay (MABA); format: cell-based, Mycobacterium tuberculosis; settings: for MIC: Mycobacterium tuberculosis
M. tuberculosis H37Rv [6] = assay: MIC by microplate alamarBlue assay (MABA); format: cell-based, Mycobacterium tuberculosis; settings: for MIC: Mycobacterium tuberculosis, H37RV
[7] = Pharmacokinetic study in mice; format: in vivo, BALB/c mice; settings: Mice; for AUC(0-inf): read-out: AUC0-inf; for AUC(0-t): read-out: AUC0-last; for half-life: plasma; for At 96 h lung/plasma: lung: lung exposure at 96 h (first number of the pair); for At 96 h lung/plasma: plasma: plasma exposure at 96 h (second number of the pair)
Experimental: (§1) The BALB/c mice, rats, and beagle dogs were used in the PK study and fasted overnight before dosing. Animal doses were administered in two ways. […] Plasma samples were collected from three animals at each time point. Plasma concentrations were determined by liquid chromatography-tandem mass spectrometry (LC-MS/MS). The bioanalytical method by LC-MS/MS for pharmacokinetic (PK) studies in animal and toxicokinetic (TK) in tox studies have been validated. The total area under the concentration-time curve (AUC0-inf), the elimination half-time (t1/2), the peak concentration (Cmax), and the time to reach peak concentration (Tmax) of samples were determined directly from the experimental data using WinNonlin V6.2.1.

[8] = Pharmacokinetic study in rats; format: in vivo, rat; settings: Rat; for At 96 h lung/plasma: lung: lung exposure at 96 h (first number of the pair); for At 96 h lung/plasma: plasma: plasma exposure at 96 h (second number of the pair); for AUC(0-inf): read-out: AUC0-inf; for AUC(0-t): read-out: AUC0-last; for half-life: plasma
Experimental: as §1

[9] = cited from earlier work
[10] = tested on: M. tuberculosis susceptible strain 14242; assay: MBC determination (CFU-based); settings: 7 days incubation, 3 log10 CFU decrease
M. tuberculosis H37Rv [11] = assay: MBC determination (CFU-based); settings: 7 days incubation, 3 log10 CFU decrease
[12] = target: T1, human ether-á-go-go-related (hERG) ion channel (Homo sapiens, UniProt Q12809); assay: hERG manual patch-clamp assay in hERG-CHO cell; format: cell-based
T1 construct: expressed in transfected cells; host or cells: hERG-CHO cell (CHO cells expressing hERG)
T1 sequence (Q12809 whole entry): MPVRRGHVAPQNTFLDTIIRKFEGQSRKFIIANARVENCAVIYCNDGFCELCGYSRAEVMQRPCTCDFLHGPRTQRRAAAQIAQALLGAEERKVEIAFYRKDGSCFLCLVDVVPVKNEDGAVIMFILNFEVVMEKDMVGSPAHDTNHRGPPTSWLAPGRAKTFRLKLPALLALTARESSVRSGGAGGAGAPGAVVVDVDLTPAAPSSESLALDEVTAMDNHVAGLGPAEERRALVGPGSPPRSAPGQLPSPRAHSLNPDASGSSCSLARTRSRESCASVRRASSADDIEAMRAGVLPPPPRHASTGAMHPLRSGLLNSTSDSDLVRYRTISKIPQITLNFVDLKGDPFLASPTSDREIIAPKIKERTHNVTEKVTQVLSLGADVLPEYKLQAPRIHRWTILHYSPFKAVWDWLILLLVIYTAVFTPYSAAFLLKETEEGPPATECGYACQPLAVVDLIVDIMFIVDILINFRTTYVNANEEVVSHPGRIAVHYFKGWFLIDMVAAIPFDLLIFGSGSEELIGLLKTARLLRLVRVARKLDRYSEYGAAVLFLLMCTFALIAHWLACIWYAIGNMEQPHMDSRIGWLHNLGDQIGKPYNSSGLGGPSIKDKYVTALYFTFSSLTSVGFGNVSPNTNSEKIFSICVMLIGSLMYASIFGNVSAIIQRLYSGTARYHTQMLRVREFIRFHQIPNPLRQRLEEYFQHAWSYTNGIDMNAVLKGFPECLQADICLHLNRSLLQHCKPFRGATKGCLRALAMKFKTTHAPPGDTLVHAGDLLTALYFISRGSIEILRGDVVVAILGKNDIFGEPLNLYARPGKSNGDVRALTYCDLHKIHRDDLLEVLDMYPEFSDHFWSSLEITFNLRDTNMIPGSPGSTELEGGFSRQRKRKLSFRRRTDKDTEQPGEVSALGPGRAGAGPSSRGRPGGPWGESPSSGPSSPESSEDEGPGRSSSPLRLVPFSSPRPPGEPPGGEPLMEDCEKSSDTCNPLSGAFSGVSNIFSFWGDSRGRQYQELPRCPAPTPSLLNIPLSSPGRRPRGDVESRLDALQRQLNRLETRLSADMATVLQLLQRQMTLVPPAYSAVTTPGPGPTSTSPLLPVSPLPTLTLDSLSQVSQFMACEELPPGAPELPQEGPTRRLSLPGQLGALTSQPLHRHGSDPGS
Experimental: A human ether-á-go-go-related (hERG) ion channel in vitro assay was performed in Shanghai Institute of Materia Medica, Shanghai, for the evaluation of cardiac liability testing. The assay was a manual patch-clamp method using electrophysiology in an hERG-CHO cell.

[13] = 14-day repeated oral dose toxicity and toxicokinetic head-to-head study in beagle dogs; format: in vivo, beagle dog; settings: 14 days; for ECG: QT interval / cTnI: 200 mg/kg; for cTnI: one of three males, all others BLQ
[14] = BALB/c, mouse, in vivo, Iv. 1.0 mg/kg
[15] = BALB/c, mouse, in vivo, Po. 6.25 mg/kg
[16] = beagle dogs, 200 mg/kg oral, listed as bedaquiline fumarate

Q: With `COc1nc2ccc(Br)cc2cc1[C@@H](c1ccccc1)[C@@](O)(CCN(C)C)c1cccc2ccccc12` [BDQ, bedaquiline] as the compound, how does the MIC [1] read?
A: 0.029 µg/mL (≈ 0.0522 µM)

Q: What about the MIC [2] of the same compound?
A: 0.031 µg/mL (≈ 0.0558 µM)

Q: What about the MIC [3] of the same compound?
A: 0.053 µg/mL (≈ 0.0954 µM)

Q: What about the MIC [4] of the same compound?
A: 0.043 µg/mL (≈ 0.0774 µM)

Q: And the MIC [5]?
A: 0.037 µg/mL (≈ 0.0666 µM)

Q: And the MIC (M. tuberculosis H37Rv [6])?
A: 0.012 µg/mL (≈ 0.0216 µM)

Q: And the AUC(0-inf) [7, 14]?
A: 2160 ng·h/mL

Q: What about the AUC(0-t) [7, 14] of the same compound?
A: 2100 ng·h/mL

Q: What about the Vd ([7]; BALB/c, mouse, in vivo, Iv. 1.0 mg/kg, read-out: Vdss) of the same compound?
A: 6.21 L/kg

Q: And the AUC(0-inf) [7, 15]?
A: 6360 ng·h/mL

Q: And the AUC(0-t) [7, 15]?
A: 6040 ng·h/mL

Q: What about the Cmax ([7]; BALB/c, mouse, in vivo, Po. 6.25 mg/kg, read-out: Cmax) of the same compound?
A: 608 ng/mL

Q: What about the bioavailability ([7]; BALB/c, mouse, in vivo, Po. 6.25 mg/kg, read-out: F) of the same compound?
A: 47.1%

Q: What about the Tmax ([7]; BALB/c, mouse, in vivo, Po. 6.25 mg/kg, read-out: Tmax) of the same compound?
A: 5.33 h

Q: What about the half-life ([7]; BALB/c, mouse, Iv. 1.0 mg/kg) of the same compound?
A: 21.3 h

Q: What about the half-life ([7]; BALB/c, mouse, Po. 6.25 mg/kg) of the same compound?
A: 47.6 h

Q: What about the “At 96 h lung/plasma: lung” value ([7]; Iv. 1.0 mg/kg) of the same compound?
A: 27.1

Q: What about the “At 96 h lung/plasma: plasma” value ([7]; Iv. 1.0 mg/kg) of the same compound?
A: 1.31

Q: And the “At 96 h lung/plasma: lung” value ([7]; Po. 6.25 mg/kg)?
A: 135

Q: And the “At 96 h lung/plasma: plasma” value ([7]; Po. 6.25 mg/kg)?
A: 4.56

Q: And the “At 96 h lung/plasma: lung” value ([8]; Iv. 1.0 mg/kg)?
A: 62.9

Q: What about the “At 96 h lung/plasma: plasma” value ([8]; Iv. 1.0 mg/kg) of the same compound?
A: 1.89

Q: And the “At 96 h lung/plasma: lung” value ([8]; Po. 5.0 mg/kg)?
A: 58.8

Q: What about the “At 96 h lung/plasma: plasma” value ([8]; Po. 5.0 mg/kg) of the same compound?
A: 1.52

Q: What about the AUC(0-inf) ([8]; in vivo, Iv. 1.0 mg/kg) of the same compound?
A: 1930 ng·h/mL

Q: What about the AUC(0-t) ([8]; in vivo, Iv. 1.0 mg/kg) of the same compound?
A: 1830 ng·h/mL

Q: And the Vd ([8]; in vivo, Iv. 1.0 mg/kg, read-out: Vdss)?
A: 10.3 L/kg

Q: What about the AUC(0-inf) ([8]; in vivo, Po. 5.0 mg/kg) of the same compound?
A: 2680 ng·h/mL

Q: What about the AUC(0-t) ([8]; in vivo, Po. 5.0 mg/kg) of the same compound?
A: 2610 ng·h/mL

Q: And the Cmax ([8]; in vivo, Po. 5.0 mg/kg, read-out: Cmax)?
A: 354 ng/mL

Q: And the bioavailability ([8]; in vivo, Po. 5.0 mg/kg, read-out: F)?
A: 27.7%

Q: What about the Tmax ([8]; in vivo, Po. 5.0 mg/kg, read-out: Tmax) of the same compound?
A: 0.83 h

Q: And the half-life ([8]; Iv. 1.0 mg/kg)?
A: 37.6 h

Q: And the half-life ([8]; Po. 5.0 mg/kg)?
A: 29.3 h

Q: What about the elimination half-life [9] of the same compound?
A: 5.5 months

Q: And the MBCs [10]?
A: 0.156 µg/mL

Q: What about the MBCs (M. tuberculosis H37Rv [11]) of the same compound?
A: 0.156 µg/mL

Q: With `CNCC[C@@](O)(c1cccc2ccccc12)[C@H](c1ccccc1)c1cc2cc(Br)ccc2nc1OC` [BDQ-M2] as the compound, how does the IC50 ([12]; metabolites) read?
A: 1730 nM

Q: Which mortality and moribundity ([13]; 200 mg/kg oral once daily, male and female dogs) does the source give for `COc1nc2ccc(Br)cc2cc1[C@@H](c1ccccc1)[C@@](O)(CCN(C)C)c1cccc2ccccc12.O=C(O)/C=C/C(=O)O` [Bedaquiline fumarate, bedaquiline fumarate] here?
A: did not result in mortality and moribundity

Q: What about the “ECG: HR” value ([13]; beagle dogs, 200 mg/kg oral) of the same compound?
A: An increased incidence of first- and second-degree atrioventricular block

Q: And the “qualitative ECG changes associated with oral administration” value ([13]; beagle dogs, 200 mg/kg oral)?
A: increased incidence of first and second-degree atrioventricular (AV) block

Q: What about the “ECG: QT interval” value ([13]; beagle dogs, 200 mg/kg oral) of the same compound?
A: Significant QT interval prolongation

Q: What about the “ECG: QT interval” value [13, 16] of the same compound?
A: significant QTc interval prolongation

Q: And the cTnI ([13]; beagle dogs, 200 mg/kg oral)?
A: 440 (1/3 male) pg/mL

Q: And the cTnI [13, 16]?
A: 440 pg/mL

Q: What about the IC50 ([12]; parent compound) of the same compound?
A: > 30000 nM

Q: Which MIC [1] does the source give for `NNC(=O)c1ccncc1` [INH, isoniazid] here?
A: 0.034 µg/mL (≈ 0.248 µM)

Q: What about the MIC [2] of the same compound?
A: 0.028 µg/mL (≈ 0.204 µM)

Q: And the MIC [3]?
A: 0.024 µg/mL (≈ 0.175 µM)

Q: And the MIC [4]?
A: 0.03 µg/mL (≈ 0.219 µM)

Q: What about the MIC [5] of the same compound?
A: < 0.02 µg/mL

Q: And the MIC (M. tuberculosis H37Rv [6])?
A: 0.031 µg/mL (≈ 0.226 µM)

Q: Which MICs [1] does the source give for `NC[C@H]1O[C@H](O[C@H]2[C@H](O)[C@@H](O[C@H]3O[C@H](CO)[C@@H](O)[C@H](N)[C@H]3O)[C@H](N)C[C@@H]2N)[C@H](O)[C@@H](O)[C@@H]1O` [KM, kanamycin] here?
A: 2.417 µg/mL

Q: And the MICs [2]?
A: 1.146 µg/mL

Q: What about the MICs [3] of the same compound?
A: 1.219 µg/mL

Q: And the MICs [4]?
A: 1.154 µg/mL

Q: And the MICs [5]?
A: 1.907 µg/mL

Q: What about the MICs (M. tuberculosis H37Rv [6]; H37Rv) of the same compound?
A: 0.730 µg/mL

Q: What does the source list for `COc1c(N2C[C@@H]3CCCN[C@@H]3C2)c(F)cc2c(=O)c(C(=O)O)cn(C3CC3)c12` [MFX, moxifloxacin]?
A: MIC [1]: 0.122 µg/mL (≈ 0.304 µM); MIC [2]: 0.037 µg/mL (≈ 0.0922 µM); MIC [3]: 0.035 µg/mL (≈ 0.0872 µM); MIC [4]: 0.039 µg/mL (≈ 0.0972 µM); MIC (M. tuberculosis H37Rv [6]): 0.045 µg/mL (≈ 0.112 µM)

Q: What does the source list for `CO[C@H]1/C=C/O[C@@]2(C)Oc3c(C)c(O)c4c(O)c(c(/C=N/N5CCN(C)CC5)c(O)c4c3C2=O)NC(=O)/C(C)=C\C=C\[C@H](C)[C@H](O)[C@@H](C)[C@@H](O)[C@@H](C)[C@H](OC(C)=O)[C@@H]1C` [RFP, rifampicin]?
A: MIC [1]: 0.035 µg/mL (≈ 0.0425 µM); MIC [2]: 0.066 µg/mL (≈ 0.0802 µM); MIC [3]: 0.057 µg/mL (≈ 0.0693 µM); MIC [4]: < 0.02 µg/mL; MIC [5]: 0.046 µg/mL (≈ 0.0559 µM); MIC (M. tuberculosis H37Rv [6]): 0.014 µg/mL (≈ 0.017 µM)
